Measured values from patent publication US20030134774A1, “Methods for inhibiting cardiac disorders” (priority 2001, published 2003).

Key:
cardiomyocytes [1] = assay: TUNEL assay of apoptosis in cardiomyocyte cultures; assay type: cell-based, rat; conditions: 500 μM, 24 hr
Procedure: rPMT increases H2O2-induced apoptosis in cardiomyocyte cultures. Cells were treated without or with rPMT (400 ng/ml) for 24 hr followed by H202 (500 μM) for 24 hr. The percentage of cells undergoing apoptosis was measured by TUNEL assay as described in Methods below. Data are from a single experiment and are representative of results obtained on 3 separate culture preparations.
TUNEL staining was performed for detection of apoptotic cells according to manufacturer's instructions (Boehringer). Approximately 500 cardiomyocytes were imaged by fluorescence microscopy and the number of cells that scored TUNEL-positive is presented as a percentage of total.

cardiomyocytes [2] = assay: Tolerance of cardiomyocytes to prolonged incubation with inhibitor; conditions: prolonged (24 hr) incubations

Row | SMILES | apoptosis (TUNEL) (cardiomyocytes [1]) | tolerance of cardiomyocytes to the inhibitor (cardiomyocytes [2])
1 | OO [H202, reference compound] | induces apoptosis | –
2 | CC(=O)c1c(O)c(C)c(O)c(Cc2c(O)c3c(c(C(=O)/C=C/c4ccccc4)c2O)OC(C)(C)C=C3)c1O [rottlerin] | – | do not tolerate
